Patent US8653096B2, “Chemokine receptor antagonists and methods of use thereof” (Millennium Pharmaceuticals, Inc., priority 2001, dated 2014)
pIC50: −log10 of the molar value.

Target: T1, RANTES/MIP-1α chemokine receptor (CCR1) in THP-1 cell membranes (Homo sapiens, UniProt P32246)
T1 construct: Membranes were prepared from THP-1 cells (ATCC #TIB202); host or cells: THP-1 cells (membrane preparation)
T1 sequence (P32246 1-355): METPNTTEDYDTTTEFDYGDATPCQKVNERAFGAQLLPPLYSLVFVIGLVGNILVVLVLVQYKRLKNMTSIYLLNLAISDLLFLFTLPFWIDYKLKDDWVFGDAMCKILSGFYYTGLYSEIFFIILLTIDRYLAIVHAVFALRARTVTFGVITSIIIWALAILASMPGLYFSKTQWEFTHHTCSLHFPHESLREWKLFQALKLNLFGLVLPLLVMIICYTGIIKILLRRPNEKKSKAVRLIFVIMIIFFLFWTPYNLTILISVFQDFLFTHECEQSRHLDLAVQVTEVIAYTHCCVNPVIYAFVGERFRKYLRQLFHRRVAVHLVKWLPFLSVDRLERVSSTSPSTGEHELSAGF
Experiment: Receptor binding assay: 125I-RANTES or 125I-MIP-1α binding to THP-1 cell membranes
Conditions: for pIC50: inhibitor concentration required for 50% inhibition of specific binding, 125I-RANTES or 125I-MIP-1α as ligand, THP-1 cell membranes, read-out: IC50; for relative activity of resolved enantiomers: enantiomers resolved from the racemate on ChiralPak AD, test not named

Compound | pIC50 | relative activity of resolved enantiomers
CC(C)(O)c1ccc2c(c1)C(=CCCN1CC[C@@](O)(c3ccc(Cl)cc3)[C@H](C#N)C1)c1cccnc1CO2 (relative stereo) [Example 480, Cis-4-(4-Chloro-phenyl)-4-hydroxy-1-{3-[7-(1-hydroxyl-1-methyl-ethyl)-11H-10-oxa-1-aza-dibenzo[a,d]cyclohepten-5-ylidene]-propyl}-piperidin-3-carbonitrile] | > 6.00 | –
CC(C)(O)c1ccc2c(c1)C(=CCCN1CCC(O)(c3ccc(Cl)cc3)C(C)(CO)C1)c1cccnc1CO2 (single isomer, unassigned) [Example 483-1, 4-(4-Chloro-phenyl)-3-hydroxymethyl-1-{3-[7-(hydroxyl-1-methyl-ethyl)-11H-10-oxa-1-aza-dibenzo[a,d]cyclohepten-5-ylidene]-propyl}-3-methyl-piperidine-4-ol] | > 6.00 | more active enantiomer
CC(C)(O)c1ccc2c(c1)C(=CCCN1CCC(O)(c3ccc(Cl)cc3)C(C)(CO)C1)c1cccnc1CO2 (single isomer, unassigned) [Example 483-2, 4-(4-Chloro-phenyl)-3-hydroxymethyl-1-{3-[7-(hydroxyl-1-methyl-ethyl)-11H-10-oxa-1-aza-dibenzo[a,d]cyclohepten-5-ylidene]-propyl}-3-methyl-piperidine-4-ol] | > 5.00 | less active enantiomer
CCN(Cc1ccc(Cl)cc1)CC1CCN(CCC=C2c3cc(C(C)(C)O)ccc3OCc3ncccc32)C1 (stereo in doubt) [Example 526, (R)-2-{5-[3-(3-{[(4-Chloro-benzyl)-ethyl-amino]-methyl}-pyrrolidin-1-yl)-propylidene]5,11-dihydro-10-oxa-1-aza-dibenzo[a,d]cyclohepten-7-yl}-propan-2-ol] | > 6.00 | –
OC1(c2ccc(Cl)cc2)CCN(CCC=C2c3ccccc3CCc3ccccc32)CC1 [Example 1, 4-(4-Chlorophenyl)-1-[3-(10,11-dihydro-5H-dibenzo[a,d]cycloheptene-5-ylidene)propyl]piperidin-4-ol] | > 6.00 | –
OC1(c2ccc(Cl)cc2)CCN(CCC=C2c3ccccc3COc3ccccc32)CC1 [Example 2, 4-(4-Chlorophenyl)-1-[3-(6,11-dihydrodibenz[b,e]oxepin-11-ylidene)propyl]piperidin-4-ol] | > 6.00 | –
OC1(c2ccc(Cl)cc2)CCN(CCC=C2c3ccccc3CSc3ccccc32)CC1 [Example 8, 4-(4-Chlorophenyl)-1-[3-(6,11-dihydro-dibenz[b,e]thiepin-11-ylidene)propyl]piperidin-4-ol] | > 6.00 | –
O=C1c2ccccc2C(=CCCN2CCC(O)(c3ccc(Cl)cc3)CC2)c2ccccc2N1Cc1ccccc1 [Example 12, 1-[3-(5-Benzyl-6,11-dihydro-6-oxo-5H-dibenz[b,e]azepin-11-ylidene)propyl]-4-(4-chlorophenyl)-piperidin-4-ol] | > 6.00 | –
O=C(O)CN1C(=O)c2ccccc2C(=CCCN2CCC(O)(c3ccc(Cl)cc3)CC2)c2ccccc21 [Example 17, 1-[3-(5-Carboxymethyl-6,11-dihydro-6-oxo-5H-dibenz[b,e]azepin-11-ylidene)propyl]-4-(4-chlorophenyl)-piperidin-4-ol] | > 5.00 | –
CCOC(=O)CN1C(=O)c2ccccc2C(=CCCN2CCC(O)(c3ccc(Cl)cc3)CC2)c2ccccc21 [Example 18, 4-(4-Chlorophenyl)-1-[3-(6,11-dihydro-5-ethoxycarbonymethyl-6-oxo-5H-dibenz[b,e]azepin-11-ylidene)propyl]piperidin-4-ol] | > 6.00 | –
CN1C(=O)c2ccccc2C(=CCCN2CCC(O)(c3ccc(Cl)cc3)CC2)c2ccccc21 [Example 19, 4-(4-Chlorophenyl)-1-[3-(6,11-dihydro-5-methyl-6-oxo-5H-dibenz[b,e]azepin-11-ylidene)propyl]piperidin-4-ol] | > 6.00 | –
OC1(c2ccc(Cl)cc2)CCN(CCC=C2c3ccccc3C=Cc3ccccc32)CC1 [Example 21, 4-(4-Chlorophenyl)-1-[3-(5H-dibenzo[a,d]cycloheptene-5-ylidene)propyl]piperidin-4-ol] | > 6.00 | –
COC(=O)c1ccc2c(c1)C(=CCCN1CCC(O)(c3ccc(Cl)cc3)CC1)c1ccccc1CO2 [Example 22, 4-(4-Chlorophenyl)-1-[3-(6,11-dihydro-2-methoxycarbonyldibenz[b,e]oxepin-11-ylidene)propyl]piperidin-4-ol] | > 6.00 | –
CCCCOC(=O)c1ccc2c(c1)C(=CCCN1CCC(O)(c3ccc(Cl)cc3)CC1)c1ccccc1CO2 [Example 23, 1-[3-(2-Butoxycarbonyl-6,11-dihydrodibenz[b,e]oxepin-11-ylidene)propyl]-4-(4-chlorophenyl)piperidin-4-ol] | > 6.00 | –
O=C(O)c1ccc2c(c1)C(=CCCN1CCC(O)(c3ccc(Cl)cc3)CC1)c1ccccc1CO2 [Example 24, 1-[3-(2-Carboxyl-6,11-dihydrodibenz[b,e]oxepin-11-ylidene)propyl]-4-(4-chlorophenyl)piperidin-4-ol] | > 5.00 | –
CN(C)C(=O)c1ccc2c(c1)C(=CCCN1CCC(O)(c3ccc(Cl)cc3)CC1)c1ccccc1CO2 [Example 25, 4-(4-Chlorophenyl)-1-[3-(6,11-dihydro-2-dimethylaminocarbonyldibenz[b,e]oxepin-11-ylidene)propyl]piperidin-4-ol] | > 6.00 | –

Compound | pIC50 | relative activity of resolved enantiomers
OCc1ccc2c(c1)C(=CCCN1CCC(O)(c3ccc(Cl)cc3)CC1)c1ccccc1CO2 [Example 26, 4-(4-Chlorophenyl)-1-[3-(6,11-dihydro-2-hydroxymethyldibenz[b,e]oxepin-11-ylidene)propyl]piperidin-4-ol] | > 6.00 | –
CC(C)(O)c1ccc2c(c1)C(=CCCN1CCC(O)(c3ccc(Cl)cc3)CC1)c1ccccc1CO2 [Example 27, 4-(4-Chlorophenyl)-1-[3-(6,11-dihydro-2-(1-hydroxy-1-methyl)ethyldibenz[b,e]oxepin-11-ylidene)propyl]piperidin-4-ol] | > 6.00 | –
N#Cc1ccc2c(c1)C(=CCCN1CCC(O)(c3ccc(Cl)cc3)CC1)c1ccccc1CO2 [Example 28, 4-(4-Chlorophenyl)-1-[3-(2-cyano-6,11-dihydrodibenz[b,e]oxepin-11-ylidene)propyl]piperidin-4-ol] | > 6.00 | –
NCc1ccc2c(c1)C(=CCCN1CCC(O)(c3ccc(Cl)cc3)CC1)c1ccccc1CO2 [Example 29, 1-[3-(2-Aminomethyl-6,11-dihydrodibenz[b,e]oxepin-11-ylidene)propyl]-4-(4-chlorophenyl)piperidin-4-ol] | > 6.00 | –
O=[N+]([O-])c1ccc2c(c1)C(=CCCN1CCC(O)(c3ccc(Cl)cc3)CC1)c1ccccc1CO2 [Example 30, 4-(4-Chlorophenyl)-1-[3-(6,11-dihydro-2-nitrodibenz[b,e]oxepin-11-ylidene)propyl]piperidin-4-ol] | > 6.00 | –
Nc1ccc2c(c1)C(=CCCN1CCC(O)(c3ccc(Cl)cc3)CC1)c1ccccc1CO2 [Example 31, 1-[3-(2-Amino-6,11-dihydrodibenz[b,e]oxepin-11-ylidene)propyl]-4-(4-chlorophenyl)piperidin-4-ol] | > 6.00 | –
Oc1ccc2c(c1)C(=CCCN1CCC(O)(c3ccc(Cl)cc3)CC1)c1ccccc1CO2 [Example 32, 4-(4-Chlorophenyl)-1-[3-(6,11-dihydro-2-hydroxydibenz[b,e]oxepin-11-ylidene)propyl]piperidin-4-ol] | > 6.00 | –
COc1ccc2c(c1)C(=CCCN1CCC(O)(c3ccc(Cl)cc3)CC1)c1ccccc1CO2 [Example 33, 4-(4-Chlorophenyl)-1-[3-(6,11-dihydro-2-methoxydibenz[b,e]oxepin-11-ylidene)propyl]piperidin-4-ol] | > 6.00 | –
CCOc1ccc2c(c1)C(=CCCN1CCC(O)(c3ccc(Cl)cc3)CC1)c1ccccc1CO2 [Example 34, 4-(4-Chlorophenyl)-1-[3-(6,11-dihydro-2-ethoxydibenz[b,e]oxepin-11-ylidene)propyl]piperidin-4-ol] | > 6.00 | –
OC1(c2ccc(Cl)cc2)CCN(CCC=C2c3ccccc3COc3cc(Br)ccc32)CC1 [Example 35, 1-[3-(3-Bromo-6,11-dihydrodibenz [b,e]oxepin-11-ylidene)propyl]-4-(4-chlorophenyl)piperidin-4-ol] | > 6.00 | –
COC1(c2ccc(Cl)cc2)CCN(CCC=C2c3ccccc3COc3ccccc32)CC1 [Example 36, 4-(4-Chlorophenyl)-1-[3-(6,11-dihydrodibenz[b,e]oxepin-11-ylidene)propyl]-4-methoxypiperidine] | > 6.00 | –
OC1(c2ccc(Cl)cc2)CCN(CCC=C2c3cc(Br)ccc3OCc3ccsc32)CC1 [Example 38, 1-[3-(8-Bromo-4,10-dihydrothieno[3,2-c][1]benzoxepin-10-ylidene)propyl]piperidin-4-(4-chlorophenyl)-4-ol] | > 6.00 | –
O=C1Nc2ccccc2C(=CCCN2CCC(O)(c3ccc(Cl)cc3)CC2)c2ccccc21 [Example 39, 4-(4-Chlorophenyl)-1-[3-(6,11-dihydro-6-oxo-5H-dibenz[b,e]azepin-11-ylidene)propyl]piperidin-4-ol] | > 5.00 | –
CCN1C(=O)c2ccccc2C(=CCCN2CCC(O)(c3ccc(Cl)cc3)CC2)c2ccccc21 [Example 40, 4-(4-Chlorophenyl)-1-[3-(6,11-dihydro-5-ethyl-6-oxo-5H-dibenz[b,e]azepin-11-ylidene)propyl]piperidin-4-ol] | > 6.00 | –
CCCCN1C(=O)c2ccccc2C(=CCCN2CCC(O)(c3ccc(Cl)cc3)CC2)c2ccccc21 [Example 41, 1-[3-(5-n-Butyl-6,11-dihydro-6-oxo-5H-dibenz[b,e]azepin-11-ylidene)propyl]-4-(4-chlorophenyl)-piperidin-4-ol] | > 6.00 | –
